Assays:
CRYAB = test system: CRYAB; parameters: method as in Makley et al., 2015; conditions: ref Makley et al., 2015; cited from earlier work
15-d-PGJ2 = 15-d-PGJ2 ELISA in urine of Doxo-treated mice given 25HC; format: in vivo, mouse; conditions: urine collected after the first treatment with 25HC 50 mg/kg i.p. (24 h per Figure 8, 12 hr per methods)
Protocol: Figure 8 25HC induces senolysis in vivo in Doxo-treated mice (A) Timeline of 25HC treatment in Doxo-treated mice. Mice were given 4 mg/kg Doxo or PBS for 5 daily injections[A1], then injected with 25HC or vehicle for 7 consecutive days. (B) Mass of gastrocnemius muscles. Muscle weight was normalized to body weight. (C) Cdkn2a and Cryab mRNA levels in gastrocnemius (Gastroc) and soleus (Sol) muscles. RNA was collected 28–30 d after the first treatment with Doxo. mRNA levels were quantified by qRT-PCR, and normalized to actin mRNA levels. The average value of PBS-vehicle was set at 1. (D) 15-d-PGJ2 analysis in urine. […]
Male C57BL/6J mice (3–4 months old) were purchased from the Jackson Laboratory. […] Senescence markers p16^INK4a, p21^Cip1 and CRYAB expression was analyzed on gastrocnemius (Gastroc), soleus (So), tibialis anterior (TA), visceral fat (VF), kidney (Ki), liver (Li), lung (Lu), heart (He), and skin (Sk) samples by qRT-PCR.
Urine was collected at 12 or 24 h after the first treatment with 25HC or vehicle and diluted 10-fold with assay buffer. The amount of 15-d-PGJ2 was measured using a 15-deoxy-Δ^12,14-PGJ2 ELISA kit according to manufactures’ protocol (Enzo Life Sciences).

SARS-CoV-2 = test system: SARS-CoV-2; parameters: method as in Wang et al., 2020; Zang et al., 2020; Zu et al., 2020; conditions: by depleting membrane cholesterol, ref Wang et al., 2020, Zang et al., Zu et al.; cited from earlier work
[1] = test system: Cdkn1a and Cryab mRNA in gastrocnemius and soleus muscles; assay: qRT-PCR of senescence markers and Cryab in muscles of Doxo-treated mice given 25HC; format: in vivo, mouse; conditions: Doxo-treated male mice, 25HC 50 mg/kg i.p. for 7 consecutive days
Protocol: Figure 8 25HC induces senolysis in vivo in Doxo-treated mice (A) Timeline of 25HC treatment in Doxo-treated mice. Mice were given 4 mg/kg Doxo or PBS for 5 daily injections[A1], then injected with 25HC or vehicle for 7 consecutive days. (B) Mass of gastrocnemius muscles. Muscle weight was normalized to body weight. (C) Cdkn2a and Cryab mRNA levels in gastrocnemius (Gastroc) and soleus (Sol) muscles. RNA was collected 28–30 d after the first treatment with Doxo. mRNA levels were quantified by qRT-PCR, and normalized to actin mRNA levels. The average value of PBS-vehicle was set at 1. (D) 15-d-PGJ2 analysis in urine. Urine was collected at 24 h after the first treatment with 25HC or HbCD. p values versus PBS-Veh or Doxo-Veh are obtained using Tukey's multiple comparisons test. ∗p < 0.05, ∗∗p < 0.01, p < 0.001, and ∗∗∗∗p < 0.0001.
Male C57BL/6J mice (3–4 months old) were purchased from the Jackson Laboratory. We performed five i.p. injections with 4 mg/kg of Doxo (Tocris Bioscience, Product# 2252) for each injection over 10 days (Figure 6A). Therefore, we injected a total of 20 mg/kg of Doxo/mouse over 10 days. We used EFT-PBS (EMD Millipore, Product# TMS-012-A) as a control. To test effects of 25HC (Tocris Bioscience, Product# 5741) on Doxo-treated mice, we prepared three experimental groups (n=15 for each group): 1) PBS+HβCD vehicle (22.5%), 2) Doxo (20 mg/kg)+vehicle (22.5%), 3) Doxo (20 mg/kg)+25HC (50 mg/kg) (Figure 6A); 25HC was dissolved in 22.5% 2-hydroxypropyl-beta-cyclodextrin (HβCD) (Tocris Bioscience, Product 0708). On the Day 5 after the last Doxo/PBS injections, the mice were treated with either 25HC (50 mg/kg) or vehicle by i.p. injections for 7 consecutive days (Figure 6A). 12 hr after the first 25HC or vehicle treatments, urine was collected (Figure 6A) from each group to test for the senolysis marker 15-d-PGJ2. […] Senescence markers p16^INK4a, p21^Cip1 and CRYAB expression was analyzed on gastrocnemius (Gastroc), soleus (So), tibialis anterior (TA), visceral fat (VF), kidney (Ki), liver (Li), lung (Lu), heart (He), and skin (Sk) samples by qRT-PCR. […]

C[C@H](CCCC(C)(C)O)[C@H]1CC[C@H]2[C@@H]3CC=C4C[C@@H](O)CC[C@]4(C)[C@H]3CC[C@]12C [25HC, 25-hydroxycholesterol]
CRYAB aggregation (CRYAB): blocks CRYAB aggregation | 15-d-PGJ2 levels in urine (15-d-PGJ2): increased significantly | SARS-CoV-2 replication (SARS-CoV-2): inhibits SARS-CoV-2 replication | Cryab mRNA levels in muscle [1]: reduced | Cdkn1a mRNA in gastrocnemius and soleus ([1]; versus Doxo + vehicle): significantly decreased

Source: PMC8851282, “Senolysis induced by 25-hydroxycholesterol targets CRYAB in multiple cell types” (iScience, 2022)
